Data published in PubChem BioAssay AID2305 (GlaxoSmithKline (GSK), 2010).

system: P. falciparum 3D7 growth, pLDH absorbance; test: blood-stage malaria parasite growth potency – strain 3D7, dose response (AID 2305)

Row | Compound | IC50
1 | CCCCN1Cc2c(n(CC(=O)Nc3ccccc3)c3cc(-c4ccccc4)nn3c2=O)C1=O | 810 nM
2 | O=[N+]([O-])c1cccc(CNCC2CCN(CC3CCCCC3)CC2)c1 | 1290 nM
3 | O=C(Nc1ccc(-c2ccccc2)cc1)Nc1cccc(Cn2ncc(N3CCNCC3)c(Cl)c2=O)c1 | 460 nM
4 | CNC(=O)C(C)N(c1ccc(Cl)cc1)c1nc(C(C)(C)C)cs1 (centres undefined) | 740 nM
5 | CN1CCC(N2CCN(Cc3ccc(-c4ccc(-c5nc6ccccc6[nH]5)s4)cc3)CC2)CC1 | 140 nM
6 | c1ccc(C(c2ccccc2)N2CCN(C(c3cccnc3)c3nnnn3C3CCCC3)CC2)cc1 (centres undefined) | 1080 nM
7 | CCc1c[nH]c2c(N3CCCC3=O)cc(C(=O)N[C@@H](Cc3ccccc3)[C@H](O)CNC(C)(C)c3cccc(C(F)(F)F)c3)cc12 | 120 nM
8 | Cc1ccc(-c2cc(C(=O)Nc3ccc(S(=O)(=O)N4CCCCC4)cc3)[nH]n2)c(O)c1 | 1770 nM
9 | O=C(Nc1ccc(Cl)cc1C(=O)Nc1ccncc1)c1ccc(Cl)cc1Cl | 610 nM
10 | CNC(=O)c1cc(S(=O)(=O)Nc2ccc(OC)cc2)cs1 | 1130 nM
11 | Cc1[nH]c2ccccc2c1C1=CCN(CCCCCNC(=O)/C=C/c2ccc(Cl)c(Cl)c2)CC1 | 270 nM
12 | Oc1ccc(-c2ccccc2)cc1CN1CCCCCC1 | 1170 nM
13 | O=C(Cc1cn(-c2ccccc2)nc1-c1ccc(Cl)cc1)Nc1nccs1 | 1200 nM
14 | CC(C)CNCc1cccc(-c2cccc(CN(CCCN3CCN(C)CC3)C(=O)/C=C/c3ccccc3)c2)c1 | 930 nM
15 | CCn1c(-c2nonc2N)nc2c(Cl)ncc(O[C@H](CCN)c3ccccc3F)c21 | 1460 nM
16 | CC(C)(C)C1CC(=O)C[C@@H]2C(=O)N(c3ccc(Br)cc3)C(=O)[C@H]12 (some centres undefined) | 930 nM
17 | CC(C)N1CCN(C(=O)c2ccc(CN(C)CCCN3CCN(c4cccc(Cl)c4Cl)CC3)s2)CC1 | 990 nM
18 | O=C(Nc1cccc(-c2ccc(CN3CCCC3)cc2)c1)c1cccc(F)c1 | 780 nM
19 | O=C(c1cccs1)N(Cc1cccc(-c2ccc(CNC3CCCC3)cc2)c1)C1CCN(Cc2ccccc2)CC1 | 1130 nM
20 | COc1cc(/C=C/C(=O)NCC(CCNc2cc(=O)c3ccccc3[nH]2)NCc2cc(Br)cc(Br)c2)cc(OC)c1 (centres undefined) | 910 nM
21 | CN(C)c1ccc(CN2CCC(NC(=O)c3ccc(-c4ccccc4F)s3)CC2)cc1 | 1120 nM
22 | O=C(CCN1C(=O)c2ccccc2C1=O)N1CCN(CC=Cc2ccccc2)CC1 | 540 nM
23 | O=C(/C=C/c1ccc(Cl)c(Cl)c1)NCC1CCC(CN2CCC(c3c[nH]c4ccccc34)CC2)CC1 (centres undefined) | 360 nM
24 | COc1ccc2c(NN=Cc3cccc(C)n3)cc(-c3ccccc3)nc2c1 | 750 nM
25 | O=C(Nc1cccc(-c2ccc(-c3nc4ccccc4[nH]3)cc2)c1)Nc1ccc2c(c1)OCO2 | 670 nM

Row | Compound | IC50
26 | NC(=NCCc1ccc(Cl)c(Cl)c1)c1ccc2ccccc2c1 | 510 nM
27 | COc1cc(NC(=O)/C=C/c2ccccc2Cl)cc(OCCN2CCC(O)(c3ccccc3)CC2)c1 | 170 nM
28 | CCN(CCCN1CCCCC1)c1cc(C)nc(Nc2ccc(C)cc2)n1 | 410 nM
29 | COc1ccc(-c2cccc(NC(=O)c3ccc(Cl)cc3)c2)cc1CN(C)CCN(C)C | 780 nM
30 | Cc1oc(-c2cccc(Oc3ccccc3)c2)nc1CN(Cc1cnn(C)c1)C(C)C | 1090 nM
31 | CCCCN(C)CC#Cc1ccc2[nH]c(C)c(Cl)c(=O)c2c1 | 130 nM
32 | CCc1ccc(NC(=O)c2ccc(CN3CCCN(Cc4cccs4)CC3)cc2)cc1 | 830 nM
33 | Cc1ccccc1C1CCN(C2CCC(NC(=O)c3ccc(-c4ccccc4)s3)CC2)CC1 (centres undefined) | 660 nM
34 | Cc1cccc2[nH]c(-c3ccc(-c4cccc(NC(=O)Nc5ccc(F)c(F)c5F)c4)cc3)nc12 | 340 nM
35 | C[C@@H](N=C(Nc1ccc(-c2ccccc2)cc1)Nc1ccc(C#N)cc1O)c1ccc(Br)cc1 | 700 nM
36 | COc1ccccc1CN1CCC(CNC(=O)c2cc(-c3ccc(N(C)C)cc3)cs2)C1 (centres undefined) | 1270 nM
37 | O=c1cc(NCCC(CNCCc2ccccc2)NCc2cc(Br)cc(Br)c2)[nH]c2ccccc12 (centres undefined) | 510 nM
38 | Cc1ccc(NC(=O)c2ccc(Cl)cc2)cc1-c1ccc(C(=O)Nc2ccncc2)cc1 | 780 nM
39 | CCOC(=O)c1[nH]c2ccc(F)cc2c1NC(=O)CN1CCN(c2cccc(C(F)(F)F)c2)CC1 | 460 nM
40 | CC(C)Cn1cc(C2CCN(CCN3CCC(CNC(=O)c4ccc(NC(=O)c5cc(Cl)cc(Cl)c5)cc4)CC3)CC2)c2ccccc21 | 690 nM
41 | NC(N)=Nc1ccc(OCCCCCOc2ccc(N=C(N)N)cc2Br)c(Br)c1 | 260 nM
42 | O=c1cc(NCCC(CNCc2ccc(Br)o2)NCc2cc(Br)cc(Br)c2)[nH]c2ccccc12 (centres undefined) | 860 nM
43 | CC(=O)Nc1nc(C(=O)Nc2ccc(-c3ccc(-c4nc5ccc(F)cc5[nH]4)cc3)cc2)cs1 | 460 nM
44 | CCSc1nnc(C2CCCN(CC(=O)Nc3cc(C(F)(F)F)ccc3Cl)C2)n1CC (centres undefined) | 230 nM
45 | CC(=O)Nc1ncc(C(=O)Nc2cccc(-c3ccc(-c4nc5ccc(F)cc5[nH]4)cc3)c2)s1 | 620 nM
46 | Cc1cc(N(C)C)nc(Nc2ccc(NC(=O)c3c(F)cccc3F)cc2)n1 | 1380 nM
47 | O=C(NCCc1ccc(Cl)c(Cl)c1)C1CCCN(C(=O)c2ccc(O)c(-c3ccc(Cl)c(Cl)c3)c2)C1 (centres undefined) | 780 nM
48 | CCN1CCC(N2CCC(C(=O)Nc3cccc(-c4cccc(Cl)c4)c3)CC2)CC1 | 1080 nM
49 | CC(C)(C)c1ccc2nc(-c3ccc(/C=C/C(=O)NCc4ccc(Cl)c(Cl)c4)cc3)[nH]c2c1 | 40 nM
